Laboratory results published in ChEMBL document CHEMBL4043090 (Bioorg Med Chem, 2017).

Tests used:
PBMC = experiment: Antiviral activity against HIV-1 Bal infected in human PBMC by MTS assay; format: functional, cell-based
[1] = Cytotoxicity against human PBMC assessed as reduction in cell viability by MTS assay; format: cell-based; conditions: read-out: TC50 (the source's name)
[2] = Therapeutic index, ratio of TC50 for human MAGI-CCR5 cells to IC50 for HIV-1 Bal infected in MAGI-CCR5 cells
[3] = Therapeutic index, ratio of TC50 for human PBMC to IC50 for HIV-1 Bal infected in human PBMC
[4] = Cytotoxicity against human MAGI-CCR5 cells assessed as reduction in cell viability after 48 hrs by MTS assay; format: cell-based; conditions: read-out: TC50
[5] = tested on: Human immunodeficiency virus 1; experiment: Antiviral activity against HIV-1 Bal infected in human MAGI-CCR5 cells assessed as reduction in viral infection after 48 hrs by fluorescence based beta-galactosidase reporter gene assay; format: functional, cell-based; conditions: for IC50 / IC90: Human immunodeficiency virus 1, Bal, MAGI-CCR5, 48 h

Row | SMILES | IC50 (PBMC) [µM] | IC90 (PBMC) [µM] | CC50 [1] [µM] | TI [2] | TI [3] | CC50 at 48 h [4] [µM] | Activity [5] | IC50 [5] [µM] | IC90 [5] [µM]
1 | CC1=C(c2nc(-c3ccc(C#N)cc3)cs2)C(c2cc3ccccc3[nH]2)NC(=O)N1 (configuration not stated) | 3.5 | 10.8 | 69.8 | 24 | 20 | 50.5 | Dose-dependent effect | 2.1 | 10.4
2 | CC1=C(c2nc(-c3ccc(C#N)cc3)cs2)C(c2cncc(F)c2)NC(=O)N1 (configuration not stated) | 0.53 | 1.3 | > 100 | 143 | 189 | > 100 | Dose-dependent effect | 0.7 | > 100
3 | CC1=C(c2nc(-c3ccc(C#N)cc3)cs2)C(c2ccnc(Cl)c2)NC(=O)N1 (configuration not stated) | 4.4 | 44.5 | > 100 | 31 | 23 | > 100 | Dose-dependent effect | 3.2 | > 100
4 | COc1ccc(C2NC(=O)NC(C)=C2c2nc(-c3ccc(C#N)cc3)cs2)cc1O (configuration not stated) | 0.15 | 0.42 | > 100 | 263 | 667 | > 100 | Dose-dependent effect | 0.38 | 37.8
5 | CC1=C(c2nc(-c3ccc(C#N)cc3)cs2)C(c2ccncc2F)NC(=O)N1 (configuration not stated) |  |  |  | 1.6 |  | > 100 |  | 63.4 | > 100
6 | CC1=C(c2nc(-c3ccc(Br)cc3)cs2)C(c2cccc(O)c2)NC(=O)N1 (configuration not stated) | 3.6 | 12 | 56 | 26 | 16 | 60 | Dose-dependent effect | 2.3 | 15
7 | CC1=C(c2nc(-c3ccc(C#N)cc3)cs2)C(c2cccc(OC(F)(F)F)c2)NC(=O)N1 (configuration not stated) | 41.2 | > 100 | > 100 | 42 | 2.4 | > 100 | Dose-dependent effect | 2.4 | 69.8
8 | COc1ccc(-c2csc(C3=C(C)NC(=O)NC3c3cccc(O)c3)n2)cc1 (configuration not stated) | 30 | 78 | 91 | 1.5 | 3 | > 100 | Dose-dependent effect | 66 | > 100
9 | CC1=C(c2nc(-c3ccc(C#N)cc3)cs2)C(c2cccnc2F)NC(=O)N1 (configuration not stated) | 0.26 | 0.83 | > 100 | 227 | 385 | > 100 | Dose-dependent effect | 0.44 | 2.6
10 | CC1=C(c2nc(-c3ccc(F)cc3)cs2)C(c2cccc(O)c2)NC(=O)N1 (configuration not stated) | 8 | 18 | 58 | 16 | 7.3 | 60 | Dose-dependent effect | 3.8 | 50
11 | CC1=C(c2nc(-c3ccc(C#N)cc3)cs2)C(c2ccnc3ccccc23)NC(=O)N1 (configuration not stated) | 2.9 | 10.5 | 68.3 | 26 | 24 | > 100 | Dose-dependent effect | 3.8 | 98.3
12 | CC1=C(c2nc(-c3ccc(C#N)cc3)cs2)C(c2cccc(O)c2)NC(=O)N1C (configuration not stated) | 3.2 | 8.5 | > 100 | 42 | 31 | > 100 | Dose-dependent effect | 2.4 | 13.8
13 | CC1=C(c2nc(-c3ccc(C#N)cc3)cs2)C(c2cccnc2Cl)NC(=O)N1 (configuration not stated) | 1.5 | 8.8 | > 100 | 46 | 67 | > 100 | Dose-dependent effect | 2.2 | 85.5
14 | CC1=C(c2nc(-c3cccs3)cs2)C(c2cccc(O)c2)NC(=O)N1 (configuration not stated) |  |  |  | 2 |  | > 100 |  | 49 | > 100
15 | COc1cccc(C2NC(=O)NC(C)=C2c2nc(-c3ccc(C#N)cc3)cs2)n1 (configuration not stated) | 1.6 | 5.9 | > 100 | 63 | 63 | > 100 | Dose-dependent effect | 1.6 | 14.4
16 | CC1=C(c2nc(-c3ccc(C#N)cc3)cs2)C(c2ccc(Cl)nc2Cl)NC(=O)N1 (configuration not stated) | 1.9 | 5.7 | 99.1 | 116 | 52 | > 100 | Dose-dependent effect | 0.86 | 5.8
17 | COc1cncc(C2NC(=O)NC(C)=C2c2nc(-c3ccc(C#N)cc3)cs2)c1 (configuration not stated) |  |  |  | 9.6 |  | > 100 |  | 10.4 | > 100
18 | CC1=C(c2nc(-c3ccc(C#N)cc3)cs2)C(c2ccc(Oc3ccccc3)cc2)NC(=O)N1 (configuration not stated) | 0.53 | 1.8 | > 100 | 83 | 189 | > 10 | Dose-dependent effect | 0.12 | 0.62
19 | CC1=C(c2nc(-c3ccc(Cl)cc3)cs2)C(c2cccc(O)c2)NC(=O)N1 (configuration not stated) | 1.3 | 4.1 | 65 | 29 | 50 | 55 | Dose-dependent effect | 1.9 | 11
20 | CC1=C(c2nc(-c3cccc(C#N)c3)cs2)C(c2ccc(O)cc2)NC(=O)N1 (configuration not stated) | 3.3 | 10.2 | 87.5 | 16 | 27 | 69.6 | Dose-dependent effect | 4.4 | 40.9
21 | COc1cccc(C2NC(=O)NC(C)=C2c2nc(-c3ccc(C#N)cc3)cs2)c1 (configuration not stated) | 0.56 | 1.6 | > 100 | 263 | 179 | > 100 | Dose-dependent effect | 0.38 | 1.8
22 | CC1=C(c2nc(-c3ccc(C#N)cc3)cs2)C(c2ccc3ccccc3n2)NC(=O)N1 (configuration not stated) | 1.3 | 5.5 | > 100 | 67 | 77 | > 100 | Dose-dependent effect | 1.5 | 12.7
23 | CC1=C(c2nc(-c3ccc(C#N)cc3)cs2)C(c2ccc(OC(F)(F)F)cc2)NC(=O)N1 (configuration not stated) | 8.6 | 21 | > 100 | 63 | 12 | > 100 | Dose-dependent effect | 1.6 | 7.6
